Data from US12503452B2 (Curza Global, LLC, priority 2019, dated 2025).
Where a name gives a salt, the structure may show the parent alone. Read-outs that look alike come from different tables or passages of the source.

Assays:
[1] = target: Rabbit Reticulocyte Lysate (eukaryotic protein synthesis); assay: Rabbit reticulocyte lysate luciferase assay (inhibition of eukaryotic protein synthesis); format: biochemical; details: read-out: Rabbit reticulocyte IC50 (μM/% inhib.)
In short: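 Nuclease-treated rabbit reticulocyte lysate translating luciferase control RNA, with complete amino acids, was incubated at 30° C. for 90 minutes with 2-fold serial compound dilutions. Luminescence was measured after adding luciferase reagent. % inhibition was relative to water controls, with no-RNA wells as background.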

E. faecalis (Ef) = assay: Broth microdilution minimum inhibitory concentration (MIC); format: cell-based; details: Enterococcus faecalis, read-out: Ef + bicarb MIC
Protocol: (§1) A certified BSL-2 laboratory was used for testing. Compounds were evaluated using the broth microdilution minimum inhibitory concentration (MIC) and minimum bactericidal concentration (MBC) assays defined by Clinical and Laboratory Standards Institute (CLSI) in the M26-A guideline against S. aureus (Sa), E. coli (Ec), K. pneumoniae (Kp), A. baumannii (Ab), E. faecalis (Ef) and P. aeruginosa (Pa).
(§2) MICs were determined using the Clinical Laboratory and Standards Institute (CLSI) Broth Microdilution Method with slight modification. Clinical and Laboratory Standards Institute (2012). “Methods for dilution antimicrobial susceptibility tests for bacteria that grow aerobically; approved standard, 9th ed. M07-A9. Clinical and Laboratory Standards Institute, Wayne, PA” Serial two-fold dilutions of compounds are prepared in sterile clear round-bottom 96-well plates.
(§3) To prepare microdilution trays, two-fold dilutions of antimicrobial agent are prepared in growth medium: Cation-Adjusted Mueller-Hinton Broth (CAMHB), or CAMHB supplemented with sodium bicarbonate (6.25 or 25 mM final concentration prepared from a 1.0M stock solution) or CAMHB supplemented with heat inactivated human serum (Fisher Cat. #BP2657100) 0-50% by adding 200 μL of the highest concentration to be tested (64 μg/mL, for example) in row A, mixing and transferring 100 μL from row A to 100 μL growth medium in row B, then repeating the mixing and transferring through row H of the 96-well plate, discarding the excess 100 μL remaining. This slight modification to the CLSI protocol enables evaluation of MICs for 3 compounds per plate in triplicate, albeit with only 8 compound dilutions (CLSI protocol enables 2 compounds in triplicate with 10 dilutions). Bacterial suspensions are added to a final concentration of 5×10^4 CFU/well by adding 5 μL of a 1:10 dilution of a 0.5 McFarland suspension (1×10^8 CFU/mL) for each bacterium evaluated. Bacterial suspensions were prepared using the growth method described by CLSI. Well-isolated colonies (3-5 from an agar plate) were selected using a sterile loop and used to inoculate a tube containing 4 mL of CAMHB. The cultures are incubated at 35±2° C. until it achieves or exceeds the turbidity of the 0.5 McFarland standard, determined by measuring A600nm (usually two to six hours). When growth exceeds a 0.5 McFarland standard, the turbidity is adjusted with broth to be equivalent to a 0.5 McFarland standard.

E. coli (Ec) = assay: as above; format: cell-based; details: Escherichia coli, read-out: E. coli + bicarb MIC
Protocol: as §1, §2, §3

P. aeruginosa (Pa) = assay: as above; format: cell-based; details: Pseudomonas aeruginosa, read-out: Pa MIC + bicarb
Protocol: as §1, §2, §3

A. baumannii (Ab) = assay: as above; format: cell-based; details: Acinetobacter baumannii, read-out: Ab + bicarb MIC
Protocol: as §1, §2, §3

S. aureus (Sa) = assay: as above; format: cell-based; details: Staphylococcus aureus, read-out: Sa + bicarb MIC
Protocol: as §1, §2, §3

[2] = tested on: E. coli S30 extract (bacterial protein synthesis); assay: E. coli S30 extract coupled transcription-translation luciferase assay (inhibition of bacterial protein synthesis); format: biochemical; details: read-out: S30 IC50 (μM/% inhib.)
In short: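 Cell-free coupled transcription-translation in E. coli S30 circular-DNA extract, with pBESTluc plasmid as template and complete amino acid mix. Eight 2-fold compound dilutions were incubated with the extract 1 h at 37 °C, chilled, then luciferase luminescence was read. % inhibition was taken relative to no-inhibitor wells; no-DNA wells gave background.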

[3] = class by IC50 or % inhibition @ 1 μM
[4] = E. faecalis, growth medium supplemented with sodium bicarbonate
[5] = E. coli, growth medium supplemented with sodium bicarbonate
[6] = P. aeruginosa, growth medium supplemented with sodium bicarbonate
[7] = A. baumannii, growth medium supplemented with sodium bicarbonate
[8] = S. aureus, growth medium supplemented with sodium bicarbonate
[9] = E. faecalis, growth medium with sodium bicarbonate
[10] = A. baumannii, growth medium with sodium bicarbonate

SMILES	IC50 [1, 3]	IC50 [2, 3]	MIC (E. faecalis (Ef); [4])	MIC (E. coli (Ec); [5])	MIC (P. aeruginosa (Pa); [6])	MIC (A. baumannii (Ab); [7])	MIC (S. aureus (Sa); [8])	also measured
CC(C)(N)C(=O)N1CCN(C(=O)Nc2ccn(-c3ccc(CNC4CCC[C@@H](N)C4)cc3)c(=O)n2)CC1 (mixture of isomers) [Compound 320, hydrochloride salt]	> 1 µM	< 0.5 µM						MIC (E. faecalis (Ef)): > 32 µg/mL; MIC (E. coli (Ec)): < 8 µg/mL; MIC (P. aeruginosa (Pa)): > 32 µg/mL; MIC (A. baumannii (Ab)): > 32 µg/mL; MIC (S. aureus (Sa)): 8 to 32 µg/mL
CC(Cc1ccc(-n2ccc(NC(=O)N3CCN(C(=O)C(C)(C)N)CC3)nc2=O)cc1)NC[C@@H]1CCC[C@@H](N)C1 (mixture of isomers) [Compound 155]	> 1 µM	> 1 µM	> 32 µg/mL	< 8 µg/mL	> 32 µg/mL	> 32 µg/mL	8 to 32 µg/mL	
CC(C)(N)C(=O)N1CCN(C(=O)Nc2ccn(-c3cccc(CCN4CC[C@H](CN)C4)c3)c(=O)n2)CC1 (stereo in doubt) [Compound 24]	> 1 µM	< 0.5 µM	> 32 µg/mL	8 to 32 µg/mL	> 32 µg/mL	> 32 µg/mL	8 to 32 µg/mL	
C[C@@H]1CCN(CCc2ccc(-n3ccc(NC(=O)N4CCN(C(=O)[C@](C)(N)CO)CC4)nc3=O)cc2)CC[C@H]1N (stereo in doubt) [Compound 28]	> 1 µM	< 0.5 µM	< 8 µg/mL	< 8 µg/mL	> 32 µg/mL	> 32 µg/mL	< 8 µg/mL	
C[C@H]1CN(Cc2ccc(-n3ccc(NC(=O)N4CCN(C(=O)C(C)(C)N)CC4)nc3=O)cc2)CC[C@H]1N (stereo in doubt) [Compound 297, hydrochloride salt]	> 1 µM	0.5 to 1 µM						MIC (E. faecalis (Ef)): 8 to 32 µg/mL; MIC (E. coli (Ec)): < 8 µg/mL; MIC (P. aeruginosa (Pa)): > 32 µg/mL; MIC (S. aureus (Sa)): < 8 µg/mL
CC(N)C1CCCN(CCc2ccc(-n3ccc(NC(=O)N4CCN(C(=O)C(C)(C)N)CC4)nc3=O)cc2)C1 (centres unmarked) [Compound 22]	> 1 µM	< 0.5 µM		< 8 µg/mL	> 32 µg/mL		< 8 µg/mL	
CC(N)[C@H]1CCN(CCc2ccc(-n3ccc(NC(=O)N4CCN(C(=O)C(C)(C)N)CC4)nc3=O)cc2)C1 (some centres unmarked) [Compound 42]	> 1 µM	< 0.5 µM	8 to 32 µg/mL	< 8 µg/mL	8 to 32 µg/mL	> 32 µg/mL		
CC(N)[C@@H]1CCN(CCc2ccc(-n3ccc(NC(=O)N4CCN(C(=O)C(C)(C)N)CC4)nc3=O)cc2)C1 (some centres unmarked) [Compound 43]	> 1 µM	< 0.5 µM	8 to 32 µg/mL	< 8 µg/mL	8 to 32 µg/mL	> 32 µg/mL		
CC(C)(N)C(=O)N1C2COCC1CN(C(=O)Nc1ccn(-c3ccc(CN4CCC(N)CC4)cc3)c(=O)n1)C2 [Compound 68]	> 1 µM	0.5 to 1 µM		< 8 µg/mL	> 32 µg/mL		> 32 µg/mL	
CC(C)(N)C(=O)N1CC2COCC(C1)N2C(=O)Nc1ccn(-c2ccc(CN3CCC(N)CC3)cc2)c(=O)n1 [Compound 85]	> 1 µM	> 1 µM		< 8 µg/mL	> 32 µg/mL		> 32 µg/mL	
C[C@@H]1CN(C(=O)[C@@](C)(N)CO)CCN1C(=O)Nc1ccn(-c2ccc(CN3CCC(N)CC3)cc2)c(=O)n1 [Compound 89]	> 1 µM	< 0.5 µM	> 32 µg/mL			> 32 µg/mL		
Cc1cc(-n2ccc(NC(=O)N3CCN(C(=O)C(C)(C)N)CC3)nc2=O)ccc1CN1CCC(N)CC1 [Compound 91]	> 1 µM	< 0.5 µM	< 8 µg/mL	< 8 µg/mL	> 32 µg/mL	> 32 µg/mL		
CNC(C)(C)C(=O)N1CCN(C(=O)Nc2ccn(-c3ccc(CN4CCC(N)CC4)cc3)c(=O)n2)CC1 [Compound 96]	> 1 µM	> 1 µM		< 8 µg/mL	> 32 µg/mL		< 8 µg/mL	
C[C@](N)(CO)C(=O)N1CCN(C(=O)Nc2ccn(-c3ccc(CN4CCC(N)CC4)c(Cl)c3)c(=O)n2)CC1 [Compound 98]	> 1 µM	< 0.5 µM		< 8 µg/mL	> 32 µg/mL		< 8 µg/mL	
CC(N)C1CCCN(Cc2ccc(-n3ccc(NC(=O)N4CCN(C(=O)C(C)(C)N)CC4)nc3=O)cc2)C1 (centres unmarked) [Compound 109]	> 1 µM	< 0.5 µM		< 8 µg/mL	> 32 µg/mL		< 8 µg/mL	
CC(C)(N)C(=O)N1CCN(C(=O)Nc2ccn(-c3ccc(CN4CC(CN)C4)cc3)c(=O)n2)CC1 [Compound 133]	> 1 µM	< 0.5 µM	> 32 µg/mL			> 32 µg/mL		
CC(C)(N)C(=O)N1CCN(C(=O)Nc2ccn(-c3ccc(CN4CC(CCN)C4)cc3)c(=O)n2)CC1 [Compound 134]	> 1 µM	< 0.5 µM	8 to 32 µg/mL	< 8 µg/mL	> 32 µg/mL	> 32 µg/mL		
CC(N)C1CCN(CCc2ccc(-n3ccc(NC(=O)N4CCN(C(=O)C(C)(C)N)CC4)nc3=O)cc2)CC1 (centres unmarked) [Compound 168]	> 1 µM	< 0.5 µM						MIC (E. faecalis (Ef); [9]): 8 to 32 µg/mL; MIC (A. baumannii (Ab); [10]): > 32 µg/mL
CC1CN(Cc2ccc(-n3ccc(NC(=O)N4CCN(C(=O)[C@@](C)(N)CO)CC4)nc3=O)cc2)CCC1N (some centres unmarked) [Compound 223]	> 1 µM	0.5 to 1 µM						MIC (E. faecalis (Ef); [9]): < 8 µg/mL; MIC (E. coli (Ec); E. coli, growth medium with sodium bicarbonate): < 8 µg/mL; MIC (P. aeruginosa (Pa); P. aeruginosa, growth medium with sodium bicarbonate): > 32 µg/mL; MIC (A. baumannii (Ab); [10]): > 32 µg/mL
C[C@](N)(CO)C(=O)N1CCN(C(=O)Nc2ccn(-c3ccc(CCN4CCC(NC(=N)N)CC4)cc3)c(=O)n2)CC1 [Compound 349, hydrochloride salt]								IC50 ([1]; % inhibition @ 1 μM): 0.5 to 1 µM; MIC (E. coli (Ec)): < 8 µg/mL; MIC (S. aureus (Sa)): 8 to 32 µg/mL; IC50 ([2]; % inhibition @ 1 μM): < 0.5 µM
